Experimental data published in patent publication EP4667466A1, “PROTAC DEGRADERS OF MLLT1 AND/OR MLLT3” (priority 2024, dated 2025).

Molecular target: T1, MLLT1 (Homo sapiens, UniProt Q03111)
T1 construct: endogenous in cells; host or cells: MV4-11 (ATCC CRL-9591)
T1 sequence (Q03111 1-559): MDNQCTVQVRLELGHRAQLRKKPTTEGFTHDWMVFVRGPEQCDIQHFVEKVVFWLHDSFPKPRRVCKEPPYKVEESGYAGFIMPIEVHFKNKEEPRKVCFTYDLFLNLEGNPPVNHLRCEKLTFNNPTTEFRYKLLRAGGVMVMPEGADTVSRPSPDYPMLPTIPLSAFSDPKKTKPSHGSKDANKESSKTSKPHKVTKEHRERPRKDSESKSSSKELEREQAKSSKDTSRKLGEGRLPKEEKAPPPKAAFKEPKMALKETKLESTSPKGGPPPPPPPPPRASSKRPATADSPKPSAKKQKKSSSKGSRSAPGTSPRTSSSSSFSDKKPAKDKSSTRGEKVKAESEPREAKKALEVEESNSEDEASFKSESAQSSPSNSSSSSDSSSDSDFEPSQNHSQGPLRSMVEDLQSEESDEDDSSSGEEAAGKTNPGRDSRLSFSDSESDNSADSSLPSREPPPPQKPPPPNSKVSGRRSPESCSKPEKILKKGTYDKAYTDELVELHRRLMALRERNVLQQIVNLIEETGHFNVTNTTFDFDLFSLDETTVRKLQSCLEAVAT
Test: MLLT1 degradation assay (JESS automated chemiluminescent detection) in MV4-11 cells
Assay type: cell-based
Conditions: 24h, with respect to DMSO control
Method: MLLT1 degradation efficacy of compounds was tested in an automated chemiluminescent detection system (JESS, Cat# 004-650). MV4-11 (#CRL-9591, ATCC) cells were seeded at a density of 1.2 million cells/well in a non-treated 6-well cell culture plate in 2.4 mL of complete medium (IMDM + 10% FBS + 1X Penicillin-Streptomycin). 10 mM DMSO stocks were prepared, and cells were treated with three concentrations of test compounds viz. 1000, 100 and 10 nM at a final DMSO concentration of 0.1% and incubated for 24h at 37°C, 5% CO2. Post incubation, cells were centrifuged, washed with HBSS and lysed in 70 uL of RIPA buffer supplemented with Protease inhibitors (sc-24948; Santa Cruz). Subsequently, protein estimation was done using BCA protein assay kit (23225; Pierce). 4 ug protein lysate (4 uL of 1ug/uL lysate) was loaded into each well of the JESS cartridge (SM-WO01; Bio-techne) and the JESS run was performed using 1:900 dilution of anti-human MLLT1 antibody (14893; Cell signaling technology) and 1:1200 dilution of anti-human GAPDH antibody (2118; Cell signaling technology) with anti-rabbit secondary detection module (DM-001; Bio-Techne). Post run, data were analysed using "Compass for SW" software for chemiluminescent detection. The peak area for each band was used for the calculation of MLLT1 degradation with respect to DMSO control. Data is shown as "MLLT1 % degradation". Category A: A ≥ 75% degradation Category B: 50% ≤ B < 75% degradation Category C: 25% ≤ C < 50% degradation Category D: D < 25% degradation Table 1

SMILES	inhibition at 0.01 µM [%]	inhibition at 0.1 µM [%]	inhibition at 1 µM [%]
Cc1nn(CCCCCCC2CCN(c3cccc(C(=O)N[C@H]4CCC(=O)NC4=O)n3)CC2)c2cc(C(=O)Nc3cc4[nH]c([C@H]5CCCN5C)cc4cn3)ccc12 [Example 73, 1-(6-(1-(6-(((S)-2,6-dioxopiperidin-3-yl)carbamoyl)pyridin-2-yl)piperidin-4-yl)hexyl)-3-methyl-N-(2-((R)-1-methylpyrrolidin-2-yl)-1H-pyrrolo[3,2-c]pyridin-6-yl)-1H-indazole-6-carboxamide]	50 to 75	≥ 75	≥ 75
Cc1c(C#CCCCCCn2nc(C)c3ccc(C(=O)Nc4cc5[nH]c([C@H]6CCCN6C)cc5cn4)cc32)cccc1C(=O)NC1CCC(=O)NC1=O (stereo partly drawn) [Example 35, 1-(7-(3-((2,6-dioxopiperidin-3-yl)carbamoyl)-2-methylphenyl)hept-6-yn-1-yl)-3-methyl-N-(2-((R)-1-methylpyrrolidin-2-yl)-1H-pyrrolo[3,2-c]pyridin-6-yl)-1H-indazole-6-carboxamide]	25 to 50	< 25	50 to 75
CN1CCC[C@@H]1c1cc2cnc(NC(=O)c3ccc4c(C5CC5)nn(CCCCCCCC#Cc5cccc6c5CN(C5CCC(=O)NC5=O)C6=O)c4c3)cc2[nH]1 (stereo partly drawn) [Example 59, 3-cyclopropyl-1-(9-(2-(2,6-dioxopiperidin-3-yl)-1-oxoisoindolin-4-yl)non-8-yn-1-yl)-N-(2-((R)-1-methylpyrrolidin-2-yl)-1H-pyrrolo [3,2-c]pyridin-6-yl)-1H-indazole-6-carboxamide]	≥ 75	≥ 75	≥ 75
Cc1nn(CCCCN2CCN(c3ccc4c(c3)C(=O)N(C3CCC(=O)NC3=O)C4=O)CC2)c2cc(C(=O)Nc3cc4[nH]c([C@@H]5CCCN5C)cc4cn3)ccc12 (stereo partly drawn) [Example 20, 1-(4-{4-[2-(2,6-dioxopiperidin-3-yl)-1,3-dioxoisoindol-5-yl]piperazin-1-yl}butyl)-3-methyl-N-{2-[(2S)-1-methylpyrrolidin-2-yl]-1H-pyrrolo[3,2-c]pyridin-6-yl}indazole-6-carboxamide]	25 to 50	25 to 50	≥ 75
Cc1nn(CCCCCC#Cc2cccc3c2n(C)c(=O)n3C2CCC(=O)NC2=O)c2cc(C(=O)Nc3cc4[nH]c([C@H]5CCCN5C)cc4cn3)ccc12 (stereo partly drawn) [Example 11, 1-{7-[1-(2,6-dioxopiperidin-3-yl)-3-methyl-2-oxo-1,3-benzodiazol-4-yl]hept-6-yn-1-yl}-3-methyl-N-{2-[(2R)-1-methylpyrrolidin-2-yl]-1H-pyrrolo[3,2-c]pyridin-6-yl}indazole-6-carboxamide]	50 to 75	50 to 75	50 to 75
CCN1CCC[C@@H]1c1cc2cnc(NC(=O)c3ccc4c(C)nn(CCCCCCCC#Cc5cccc6c5CN(C5CCC(=O)NC5=O)C6=O)c4c3)cc2[nH]1 (stereo partly drawn) [Example 48, 1-(9-(2-(2,6-dioxopiperidin-3-yl)-1-oxoisoindolin-4-yl)non-8-yn-1-yl)-N-(2-((R)-1-ethylpyrrolidin-2-yl)-1H-pyrrolo[3,2-c]pyridin-6-yl)-3-methyl-1H-indazole-6-carboxamide]	25 to 50	50 to 75	≥ 75
Cc1nn(CCCCCC2CCN(c3cccc4c3C(=O)N(C3CCC(=O)NC3=O)C4=O)CC2)c2cc(C(=O)Nc3cc4[nH]c([C@H]5CCCN5C)cc4cn3)ccc12 (stereo partly drawn) [Example 29, 1-(5-(1-(2-(2,6-dioxopiperidin-3-yl)-1,3-dioxoisoindolin-4-yl)piperidin-4-yl)pentyl)-3-methyl-N-(2-((R)-1-methylpyrrolidin-2-yl)-1H-pyrrolo[3,2-c]pyridin-6-yl)-1H-indazole-6-carboxamide]	50 to 75	≥ 75	≥ 75
Cc1nn(CCCCCCCC#Cc2cccc(C(=O)N[C@H]3CCC(=O)NC3=O)n2)c2cc(C(=O)Nc3cc4[nH]c([C@H]5CCCN5C)cc4cn3)ccc12 [Example 42, 1-(9-(6-(((S)-2,6-dioxopiperidin-3-yl)carbamoyl)pyridin-2-yl)non-8-yn-1-yl)-3-methyl-N-(2-((R)-1-methylpyrrolidin-2-yl)-1H-pyrrolo [3,2-c]pyridin-6-yl)-1H-indazole-6-carboxamide]	50 to 75	≥ 75	≥ 75
Cc1nn(CCCCCCCC#Cc2cccc3c2CN(C2CCC(=O)NC2=O)C3=O)c2cc(C(=O)Nc3cc4[nH]c([C@H]5CCCN5C)c(Cl)c4cn3)ccc12 (stereo partly drawn) [Example 53, N-(3-chloro-2-((R)-1-methylpyrrolidin-2-yl)-1H-pyrrolo[3,2-c]pyridin-6-yl)-1-(9-(2-(2,6-dioxopiperidin-3-yl)-1-oxoisoindolin-4-yl)non-8-yn-1-yl)-3-methyl-1H-indazole-6-carboxamide]	≥ 75	≥ 75	≥ 75
Cc1nn(CCCCCCCCC#Cc2cccc3c2CN(C2CCC(=O)NC2=O)C3=O)c2cc(C(=O)Nc3cc4[nH]c([C@H]5CCCN5C)cc4cn3)ccc12 (stereo partly drawn) [Example 54, 1-(10-(2-(2,6-dioxopiperidin-3-yl)-1-oxoisoindolin-4-yl)dec-9-yn-1-yl)-3-methyl-N-(2-((R)-1-methylpyrrolidin-2-yl)-1H-pyrrolo[3,2-c]pyridin-6-yl)-1H-indazole-6-carboxamide]	≥ 75	≥ 75	≥ 75
Cc1nn(CCCCCCCCNc2cccc3c2C(=O)N(C2CCC(=O)NC2=O)C3=O)c2cc(C(=O)Nc3cc4[nH]c([C@@H]5CCCN5C)cc4cn3)ccc12 (stereo partly drawn) [Example 4, 1-(8-{[2-(2,6-dioxopiperidin-3-yl)-1,3-dioxoisoindol-4-yl]amino}octyl)-3-methyl-N-{2-[(2S)-1-methylpyrrolidin-2-yl]-1H-pyrrolo [3,2-c]pyridin-6-yl}indazole-6-carboxamide]	< 25	< 25	50 to 75
Cc1nn(CCCC2CCN(c3cccc4c3C(=O)N(C3CCC(=O)NC3=O)C4=O)CC2)c2cc(C(=O)Nc3cc4[nH]c([C@H]5CCCN5C)cc4cn3)ccc12 (stereo partly drawn) [Example 27, 1-(3-(1-(2-(2,6-dioxopiperidin-3-yl)-1,3-dioxoisoindolin-4-yl)piperidin-4-yl)propyl)-3-methyl-N-(2-((R)-1-methylpyrrolidin-2-yl)-1H-pyrrolo[3,2-c]pyridin-6-yl)-1H-indazole-6-carboxamide]	≥ 75	≥ 75	≥ 75
Cc1nn(CCCCCCCC#Cc2cccc3c2CN(C2CCC(=O)NC2=O)C3=O)c2cc(C(=O)Nc3cc4[nH]c([C@H]5CCCN5C)c(C#N)c4cn3)ccc12 (stereo partly drawn) [Example 66, N-(3-cyano-2-((R)-1-methylpyrrolidin-2-yl)-1H-pyrrolo[3,2-c]pyridin-6-yl)-1-(9-(2-(2,6-dioxopiperidin-3-yl)-1-oxoisoindolin-4-yl)non-8-yn-1-yl)-3-methyl-1H-indazole-6-carboxamide]	≥ 75	≥ 75	≥ 75
Cc1nn(CCCCCCCC#Cc2ccnc(C(=O)N[C@H]3CCC(=O)NC3=O)c2)c2cc(C(=O)Nc3cc4[nH]c([C@H]5CCCN5C)cc4cn3)ccc12 [Example 43, 1-(9-(2-(((S)-2,6-dioxopiperidin-3-yl)carbamoyl)pyridin-4-yl)non-8-yn-1-yl)-3-methyl-N-(2-((R)-1-methylpyrrolidin-2-yl)-1H-pyrrolo [3,2-c]pyridin-6-yl)-1H-indazole-6-carboxamide]	25 to 50	50 to 75	≥ 75
Cc1nn(CCCCCC#Cc2cccc3c2C(=O)N(C2CCC(=O)NC2=O)C3=O)c2cc(C(=O)Nc3cc4[nH]c([C@H]5CCCN5C)cc4cn3)ccc12 (stereo partly drawn) [Example 33, 1-(7-(2-(2,6-dioxopiperidin-3-yl)-1,3-dioxoisoindolin-4-yl)hept-6-yn-1-yl)-3-methyl-N-(2-((R)-1-methylpyrrolidin-2-yl)-1H-pyrrolo[3,2-c]pyridin-6-yl)-1H-indazole-6-carboxamide]	50 to 75	50 to 75	≥ 75
